Measurements: PubChem BioAssay (NCI)
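The compound was tested at five concentrations on cells cultured in 96-well plates, with a 48-hour exposure period. GI50 marks 50% less growth. TGI is the concentration that stops growth completely.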

Experiments:
Assay in all cases: NCI anticancer screen, dose series, 48 h
[1] = test system: HCC-2998 colon
[2] = test system: CCRF-CEM leukemia
[3] = test system: MDA-N
[4] = test system: SK-MEL-5 melanoma
[5] = test system: SNB-75 CNS
[6] = test system: SN12C renal
[7] = test system: LOX IMVI melanoma
[8] = test system: SW-620 colon
[9] = test system: UACC-62 melanoma
[10] = test system: NCI/ADR-RES ovarian
[11] = test system: 786-0 renal

Structure (SMILES) | TGI [1] | TGI [2] | TGI [3] | TGI [4] | TGI [5] | TGI [6] | TGI [7] | TGI [8] | TGI [9] | TGI [10] | TGI [11] | GI50 [2] | GI50 [7]
COCCN(CCNC(=O)c1cccc2c(N)c3cccc(C)c3nc12)CCOC | 1.72 µM | > 26.2 µM | 2.75 µM | 2.65 µM | 4.75 µM | 6.54 µM | 3.27 µM | > 50.2 µM | 10.6 µM | 33.7 µM | 8.62 µM |  | 
C1CSCCSCCCSC2CCCCC2SC1 (configuration not stated) | > 100 µM | > 100 µM | > 100 µM | > 100 µM | > 100 µM | > 100 µM | > 100 µM | > 100 µM | > 100 µM | > 100 µM | > 100 µM |  | 
COc1cc(C)c(/C=C2/N=C(c3ccccc3)OC2=O)c([N+](=O)[O-])c1OC | > 100 µM | > 100 µM | > 100 µM |  | > 100 µM | > 100 µM | > 100 µM | > 100 µM | > 100 µM | > 100 µM | > 100 µM |  | 
O=C(CN(C(=O)OC12CC3CC(CC(C3)C1)C2)C(=O)OC12CC3CC(CC(C3)C1)C2)Oc1ccc([N+](=O)[O-])cc1 | > 100 µM | > 100 µM | > 100 µM | > 100 µM | > 100 µM | > 100 µM | > 100 µM | > 100 µM | > 100 µM | > 100 µM | > 100 µM |  | 
Cc1c(C)c(C)c(Cn2[nH]c(=O)n(C)c2=O)c(C)c1C | > 100 µM | > 100 µM | > 100 µM | > 100 µM | > 100 µM | > 100 µM | > 100 µM | > 100 µM | > 100 µM | > 100 µM | > 100 µM |  | 
COc1cc2c(c(OC)c1OC)C(=O)[C@@H]1[C@H]2N1C(=O)NCCCl | > 100 µM | > 100 µM | > 100 µM | > 100 µM | > 100 µM | > 100 µM | > 100 µM | > 100 µM | > 100 µM | > 100 µM | > 100 µM |  | 
COc1cc(-c2nc3ccc(N4CCN(C)CC4)cc3[nH]2)c(OC)c2[nH]c(COC(C)=O)nc12 |  | > 100 µM | > 100 µM | > 100 µM | 82 µM | > 100 µM | 96.4 µM | > 100 µM | > 100 µM | > 100 µM | > 100 µM |  | 
Cc1ccc(C(=O)Nc2ccc(CP(=O)(O)O)cc2)cc1NC(=O)c1cccc(N)c1 | > 100 µM | > 100 µM | > 100 µM | > 100 µM | > 100 µM | > 100 µM | > 100 µM | > 100 µM | > 100 µM | > 100 µM | > 100 µM |  | 
COC(=O)/C=C\C(C#N)(C#N)N=Cc1cccc(OC)c1 | 34.4 µM | > 50.8 µM | 17.2 µM | 31.4 µM | 29.6 µM | 27.1 µM | > 50.8 µM | 5.68 µM | 31.8 µM | 35.7 µM | 13.7 µM |  | 
Cc1nc(SCC(=O)Nc2ccc(Cl)cc2)c2sc(=S)n(-c3ccccc3)c2n1 | > 10 µM | > 10 µM | > 10 µM | > 10 µM | > 10 µM | > 10 µM | > 10 µM | > 10 µM | > 10 µM | > 10 µM | > 10 µM |  | 
CSC1(C)C(=O)Nc2c(OCc3ccccc3)cc([N+](=O)[O-])cc21 (configuration not stated) | > 100 µM | > 100 µM | > 100 µM | > 100 µM | 35.7 µM | 34.6 µM | > 100 µM | > 100 µM | > 100 µM | > 100 µM | 31 µM |  | 
S=C(N/N=C(\c1ccccc1)c1ccccn1)NC1CCCCC1 | > 100 µM | > 100 µM | > 100 µM | > 100 µM | > 100 µM | > 100 µM | 23.6 µM | > 100 µM | > 100 µM | 1.59 µM | > 100 µM |  | 
CCCCn1c(CSc2ccc(Cl)cc2)c(C(=O)OCC)c2cc(OC)c(Br)cc21 | > 100 µM | > 100 µM | > 100 µM | > 100 µM | > 100 µM | > 100 µM | > 100 µM | > 100 µM | > 100 µM | > 100 µM | > 100 µM |  | 
CC1(c2sccc2Cl)CC(c2sccc2Cl)=C(C#N)C(=C(C#N)C#N)N1 (configuration not stated) | 29.4 µM | > 100 µM | 35 µM | 33.3 µM |  | 42.9 µM | 37.8 µM | 39 µM | 32.5 µM | 57.8 µM | 34.5 µM |  | 
COc1cc(C2C3=C(COC3=O)Oc3cc4c(cc32)OCO4)ccc1O (configuration not stated) | 6.34 µM | > 100 µM | 0.346 µM | 0.736 µM | 0.652 µM | > 100 µM | > 100 µM | > 100 µM | > 100 µM | > 100 µM | > 100 µM |  | 
COC(=O)C1CCC(=S)N1C(=O)OCc1ccccc1 (configuration not stated) | > 100 µM | > 100 µM | > 100 µM | > 100 µM | > 100 µM |  |  | > 100 µM | > 100 µM | > 100 µM | > 100 µM |  | 
COc1ccc(OC)c(NCC(=O)Nn2cnc3ccc(S(=O)(=O)Nc4cc(OC)ccc4OC)cc3c2=O)c1 | > 100 µM | > 100 µM | > 100 µM |  | > 100 µM | > 100 µM | > 100 µM | > 100 µM | > 100 µM | > 100 µM | > 100 µM |  | 
CCOC(=O)NN(C(=O)OCC)C(C(=O)C1=CCCCC1)N(NC(=O)OCC)C(=O)OCC | > 100 µM |  | > 100 µM | > 100 µM | > 100 µM | > 100 µM | > 100 µM | > 100 µM |  | > 100 µM | > 100 µM |  | 
CN(C)c1ccc(/C=C/c2ccc(S(N)(=O)=O)cc2)cc1 | > 100 µM | > 100 µM | > 100 µM | 25.8 µM | 62.6 µM | 51.1 µM | > 100 µM | 92.9 µM |  | 40 µM | 35.4 µM | 46 µM | 18.7 µM
COc1cccc(C23CCCC(C2)NCC3Br)c1OC (configuration not stated) |  | 99.3 µM | > 100 µM | 13.1 µM | > 100 µM | > 100 µM | > 100 µM | > 100 µM | 58.1 µM | > 100 µM | > 100 µM |  | 
